Experimental data taken from patent US5614510A, “Pharmaceutical composition with improved bioavailability of inositol phosphate” (priority 1992, dated 1997).
Structures can show the parent of a compound that is named as a salt. One block for each molecule: values may come before it.

Columns and labels:
[1] = bioavailability of IP3 in pigs: blood concentration of IP3 and AUC after intravenous, intraduodenal or oral administration; type: in vivo
Description: The blood samples were assayed for the content of IP3 and these measurements were used for the calculation of the reference data as 100% of the substance is introduced into the blood stream after an intravenous injection.
Another five pigs were given the N(3-dodecanoyloxy)propyltrimethyl ammonium salt of IP3 as an intraduodenal dosing. The animals were treated with Atropin® and anaesthetized with Hypnodil®/Sedaperone® whereafter a laparotomy was carried out. Blood samples were collected at the time intervals mentioned above and the concentration of IP3 was determined in each sample. By calculating the area under the curve (AUC) from a graph where the concentration versus time is shown and comparing the obtained value with a similar calculation from the data after intravenous injection of the substance the bioavailability for the specific formulation is obtained.
Blood samples were collected at the same time intervals as above and the concentration of IP3 was determined. Following a similar procedure the AUC was determined.
(§1) Blood samples were collected and the concentration of IP3 were determined.
as §1

Normalized AUC ([1]; pig, in vivo): 3%
Normalized AUC ([1]; pig, in vivo, iv): 100%
concentration at 0.25 h ([1]; pig, in vivo, iv): 71000 nM
concentration at 0.5 h ([1]; pig, in vivo, iv): 47500 nM
concentration at 1 h ([1]; pig, in vivo, iv): 24900 nM
concentration at 2 h ([1]; pig, in vivo, iv): 9300 nM
concentration at 4 h ([1]; pig, in vivo, iv): 3200 nM
concentration at 8 h ([1]; pig, in vivo, iv): 400 nM
concentration at 24 h ([1]; pig, in vivo, iv): 200 nM
conc. IP3 ([1]; pig, in vivo, iv, 0 min): 0 nM
concentration ([1]; pig, in vivo, iv, 2 h): 9300 nM
concentration at 0.25 h ([1]; pig, in vivo, po): 200 nM
concentration at 0.5 h ([1]; pig, in vivo, po): 500 nM
concentration at 1 h ([1]; pig, in vivo, po): 500 nM
concentration at 2 h ([1]; pig, in vivo, po): 200 nM
concentration at 4 h ([1]; pig, in vivo, po): 100 nM
concentration at 6 h ([1]; pig, in vivo, po): 100 nM
conc. IP3 ([1]; pig, in vivo, po, 0 min): 0 nM
concentration ([1]; pig, in vivo, po, 1 h): 500 nM
conc. IP3 ([1]; pig, in vivo, po, 480 min): 0 nM
conc. IP3 ([1]; pig, in vivo, po, 1440 min): 0 nM
Molecule: O=P(O)(O)O[C@@H]1[C@H](OP(=O)(O)O)[C@H](O)[C@@H](O)[C@H](O)[C@H]1OP(=O)(O)O [sodium salt, pentasodium salt of D-myo-inositol-1.2.6-triphosphate]

Molecule: N(3-dodecanoyloxy)propyltrimethylammonium inositol trisphosphate
conc. IP3 ([1]; pig blood, oral formulation given as intraduodenal dosing, 0 hrs): 0 nM
Normalized AUC ([1]; pig, in vivo): 46%
bioavailability of the oral formulation ([1]; pig, in vivo): 46%
concentration ([1]; pig, in vivo, 0.25 h): 6300 nM
concentration ([1]; pig, in vivo, 0.5 h): 9400 nM
concentration ([1]; pig, in vivo, 1 h): 10800 nM
concentration ([1]; pig, in vivo, 2 h): 7600 nM
concentration ([1]; pig, in vivo, 4 h): 2200 nM
concentration ([1]; pig, in vivo, 6 h): 1000 nM
concentration ([1]; pig, in vivo, 8 h): 800 nM
concentration ([1]; pig, in vivo, 24 h): 100 nM

Normalized AUC ([1]; pig, in vivo): 75%
bioavailability of the oral formulation ([1]; pig, in vivo): 75%
conc. IP3 ([1]; pig, in vivo, 0 min): 0 nM
concentration ([1]; pig, in vivo, 0.25 h): 18200 nM
concentration ([1]; pig, in vivo, 0.5 h): 29600 nM
concentration ([1]; pig, in vivo, 1 h): 20100 nM
concentration ([1]; pig, in vivo, 2 h): 12200 nM
concentration ([1]; pig, in vivo, 4 h): 4300 nM
concentration ([1]; pig, in vivo, 6 h): 1500 nM
concentration ([1]; pig, in vivo, 24 h): 100 nM
Molecule: N-(hexyloxycarbonyl)methyl trimethyl ammonium inositol trisphosphate
toxic effects on the intestinal barriers (intestinal barriers): no toxic effects on the intestinal barriers
